Read-outs that look alike come from different tables or passages of the source.
Key:
[1] = Cytotoxicity, neutral red uptake, A549; type: cell-based; details: human
Method: (§1) A549 human non-small cell lung cancer cell line, HepG2 hepatocarcinoma cells, and BALB/c 3T3 clone A31 murine fibroblast cell line for the study were obtained from ATCC (American Type Culture Collection, Manassas, VA, USA). Cells were propagated in DMEM medium (Sigma, D6046, Irvin, UK) supplemented with 1% penicillin (100 U/mL)–streptomycin (100 μg/mL) and 10% foetal bovine serum (Sigma, F7524, St Louis, MO, USA) in case of A549 and HepG2 or 10% calf serum (Sigma, C8056, St Louis, MO, USA) in case of BALB/c 3T3. All cultivations were performed in a humidified 5% CO2 atmosphere at 37 °C.
(§2) The cytotoxicity of the compounds was tested in A549, HepG2, and BALB/c3T3 cell lines by neutral red (NR) uptake assay. A549 and BALB/c3T3 cells were seeded in 96-well plates at a density of 8 × 10^3 cells per well, HepG2 at density 1.2 × 10^4 cells per well. After 24 h incubation, test compounds in a concentration range of 0.8 to 200 μM were added. Cultivation in the presence of test compounds was done for 48 h. Afterwards, the plates were washed with phosphate-buffered saline (PBS) (Sigma, D8537, Irvin, UK), and 25 µg/mL NR solution (Sigma, N2889, Irvin, UK) was added. In case of BALB/c 3T3 cells, NR was diluted in 5% foetal calf serum containing media, while for A549 and HepG2 cells, it was diluted in 5% foetal bovine serum containing media. After 3 h incubation, the plate was washed with PBS, and the NR taken up by viable cells was extracted using desorbing fixative (50% ethanol/1% acetic acid/49% water). Absorbance at 540 nm was measured using a Tecan M200 Infinite Pro microplate reader. Cytotoxicity was expressed as a concentration-dependent reduction of the uptake of NR, compared to the untreated controls, and the IC50 value for each compound was calculated.

A549 cell culture = experiment: Cell permeability testing (LC/MS/MS of cell lysates and media); type: in vitro ADME, human; details: for Cell Permeability, 2 × 10^4 Cells/L / Cell Permeability, 4 × 10^4 Cells/L: 24 h; for cell permeability (in words): A549
Method: To test cell permeability, each compound was added to A549 cell culture at a concentration of 20 μM and incubated for 24 h. Cells were seeded in 6-well plates at a density of 2 × 10^4 and 4 × 10^4 cells per well at concentrations 1 × 10^4 and 2 × 10^4 cells/mL media for the testing of each compound, each in three replicates. After the incubation, the cell cultivation media and cell lysates were collected. After the removal of media, cells were washed with ice-cold PBS (Sigma, D1408, Irvin, UK) and lysed for 30 min in 500 µL per well ice-cold RIPA buffer (Sigma, R0278, St Louis, MO, USA). Samples were stored at −80 °C until analysis.
The quantitative determination of tested compounds in cell lysates and culture media was performed on a Waters MICROMASS QUATTRO microTM tandem mass spectrometer combined with Acquity UPLC system. Acquity UPLC BEH C8 (2.1 × 50 mm × 1.7 μm) column was used at a flow rate of 0.25 mL/min. The column oven was set at 30 °C, and the sample injection volume was 5 μL. The mobile phase consisted of a combination of A (0.1% formic acid in water) and B (acetonitrile). The gradient elution program from 5% B to 98% B in 5 min was applied for analysis. Tandem mass spectrometer in positive electrospray mode was used for quantification. The TargetLynx software was applied to process LC/MS/MS data. Samples for LC/MS/MS analysis were prepared as follows: 200 μL of acetonitrile/methanol mixture (3:1 v/v) was add to 200 μL of each cell lysate and culture media sample. Then, the samples were centrifuged (10,000 rpm, 10 min), and the supernatants (300 μL) were removed from each sample and placed in vials for LC/MS/MS analysis. Calibration curves for all analytes were produced by analysis of standard solutions over a concentration range of 0.2 to 20 μM.

[2] = Cytotoxicity, neutral red uptake, HepG2; type: cell-based; details: human
Method: as §1, §2

[3] = Cytotoxicity, neutral red uptake, 3T3; type: cell-based, murine; details: mouse
Method: as §1, §2

[4] = molecular target: T1, human Glycine N-Methyltransferase (GNMT) (Homo sapiens, UniProt Q14749); experiment: HTRF methyltransferase selectivity assay, human GNMT; type: biochemical; details: for Ligand Efficiency (LE) Human (hMtase): estimated from IC50 values; for inhibition at 100 µM: read-out: Percent inhibition at 100 μM, Human
T1 construct: purchased MyBioSource MBS636160
T1 sequence (Q14749 1-295): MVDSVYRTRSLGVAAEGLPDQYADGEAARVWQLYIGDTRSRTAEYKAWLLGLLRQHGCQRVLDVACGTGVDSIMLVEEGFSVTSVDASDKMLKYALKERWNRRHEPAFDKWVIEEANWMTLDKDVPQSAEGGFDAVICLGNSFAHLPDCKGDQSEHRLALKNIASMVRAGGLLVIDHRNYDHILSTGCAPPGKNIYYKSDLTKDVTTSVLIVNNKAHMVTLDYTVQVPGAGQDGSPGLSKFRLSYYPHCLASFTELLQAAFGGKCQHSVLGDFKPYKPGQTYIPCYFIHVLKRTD

SARS-CoV-2 nsp16/nsp10 = SARS-CoV-2 nsp16/nsp10 (Severe acute respiratory syndrome coronavirus 2, UniProt P0DTD1); experiment: biochemical; details: for Ligand Efficiency (LE) nsp16: estimated from IC50 values; for inhibition at 100 µM: read-out: Percent inhibition at 100 μM, nsp16
SARS-CoV-2 nsp14 = SARS-CoV-2 nsp14 (Severe acute respiratory syndrome coronavirus 2, UniProt P0DTD1); experiment: biochemical; details: for Ligand Efficiency (LE) nsp14: estimated from IC50 values; for inhibition at 100 µM: read-out: Percent inhibition at 100 μM, nsp14
[5] = system: 3T3, A549, and HepG2 cell lines; experiment: Cytotoxicity, summary statements over the three cell lines; type: cell-based; details: 3T3, A549, HepG2
Method: as §2

[6] = 48 h, neutral red uptake, read-out: Cytotoxicity (CC50) A549
[7] = A549, compound 20 μM, LOQ 0.2 μM or 1%
[8] = 48 h, neutral red uptake, read-out: Cytotoxicity (CC50) HepG2
[9] = 48 h, neutral red uptake, read-out: Cytotoxicity (CC50) 3T3
[10] = HTRF, SAM 10 µM, glycine 5 mM, read-out: IC50 Human (hMtase, human glycine N-methyltransferase)
[11] = HTRF, nsp16/nsp10, SAM 10 µM, m7GpppA-RNA, read-out: IC50 nsp16
[12] = HTRF, SAM 10 µM, GpppG 4 µM, read-out: IC50 nsp14

SMILES | CC50 at 48 h [1, 6] | Cell Permeability, 2 × 10^4 Cells/L (A549 cell culture; [7]) | Cell Permeability, 4 × 10^4 Cells/L (A549 cell culture; [7]) | CC50 at 48 h [2, 8] | CC50 at 48 h [3, 9] | IC50 [4, 10] | Ligand Efficiency (LE) Human (hMtase) [4] | Ligand Efficiency (LE) nsp16 (SARS-CoV-2 nsp16/nsp10) | CC50 at 48 h [1] | Cell Permeability, 2 × 10^4 Cells/L (A549 cell culture; human, 20 μM) | Cell Permeability, 4 × 10^4 Cells/L (A549 cell culture; human, 20 μM) | CC50 at 48 h [2] | IC50 (SARS-CoV-2 nsp14; [12]) | Ligand Efficiency (LE) nsp14 (SARS-CoV-2 nsp14) | CC50 at 48 h [3] | IC50 (SARS-CoV-2 nsp16/nsp10) | IC50 [4] | inhibition at 100 µM [4] | inhibition at 100 µM (SARS-CoV-2 nsp16/nsp10) | cell permeability (in words) (A549 cell culture) | other results
Nc1ncnc2c1ncn2[C@@H]1O[C@H](C[C@@H](N)CC[C@H](N)C(=O)O)[C@@H](O)[C@H]1O [Sinefungin, reference compound] | 72.9 µM | <LOD | <LOD | > 100 µM | 99.2 µM |  |  |  |  |  |  |  |  |  |  |  |  |  |  |  | 
Cc1ccc(S(=O)(=O)OC[C@H]2O[C@@H](n3cnc4c(N)ncnc43)[C@H](O)[C@@H]2O)cc1 [ZINC3861767] |  |  |  |  |  | 2.8 µM | 0.26 kcal/mol | 0.28 kcal/mol | > 200 µM | 2.2% | 0.5% | > 200 µM | 1.5 µM | 0.27 kcal/mol | > 200 µM |  |  |  |  |  | IC50 (SARS-CoV-2 nsp16/nsp10; [11]): 1.14 µM
CSC[C@H]1O[C@@H](n2cnc3c(N)ncnc32)[C@H](O)[C@@H]1O [ZINC4228245] |  |  |  |  |  | 1.8 µM | 0.39 kcal/mol | 0.41 kcal/mol | > 200 µM | 0.7% | 0.8% | > 200 µM | 1.4 µM | 0.40 kcal/mol | > 200 µM | 1.02 µM |  |  |  |  | 
O=C(CCCn1cncn1)N1CCCC(c2nc3ccccc3s2)C1 (stereo not shown) [ZINC23398144] | > 100 µM | 0.7% | 0.6% | > 100 µM | > 100 µM |  | 0.20 kcal/mol | 0.21 kcal/mol |  |  |  |  |  | 0.23 kcal/mol |  | 197 ± 9 µM | 315 ± 5 µM | 21 ± 2% | 39 ± 7% | low level of cell permeability | IC50 (SARS-CoV-2 nsp14): 77 ± 3 µM; inhibition at 100 µM (SARS-CoV-2 nsp14): 57 ± 8%; cytotoxicity (in words) [5]: no measurable cytotoxicity
O=C(Cn1c(=O)[nH]c2c(-c3ccccc3)c[nH]c2c1=O)NCc1cccnc1 [ZINC33037945] | > 100 µM | 17.9% | 30.8% | > 100 µM | > 100 µM |  | 0.19 kcal/mol |  |  |  |  |  |  | 0.19 kcal/mol |  |  | 125 ± 6 µM | 53 ± 8% | -8 ± 6% | good cell permeability | IC50 nsp16 (SARS-CoV-2 nsp16/nsp10; HTRF, nsp16/nsp10, SAM 10 µM, m7GpppA-RNA): inactive; IC50 (SARS-CoV-2 nsp14): 106 ± 5 µM; inhibition at 100 µM (SARS-CoV-2 nsp14): 56 ± 5%; cytotoxicity (in words) [5]: no measurable cytotoxicity
O=C(Cc1csc(SCC(=O)c2ccccc2)n1)Nc1cccc2nsnc12 [ZINC38661771] | 97 µM | <LOQ | <LOQ | 93.8 µM | 116 µM |  | 0.21 kcal/mol | 0.21 kcal/mol |  |  |  |  |  | 0.19 kcal/mol |  | 51 ± 2 µM | 58 ± 3 µM | 63 ± 5% | 69 ± 8% | low level of cell permeability | IC50 (SARS-CoV-2 nsp14): 118 ± 4 µM; inhibition at 100 µM (SARS-CoV-2 nsp14): 58 ± 7%; concentration at which cytotoxicity was shown [5]: ≈ 100 μM
CCNC(=O)NCCSC[C@H]1O[C@@H](n2cnc3c(N)ncnc32)[C@H](O)[C@@H]1O [ZINC473112262] |  |  |  |  |  | 5.8 µM | 0.26 kcal/mol | 0.28 kcal/mol | > 100 µM | 0.3% | 0.3% | > 100 µM | 3.1 µM | 0.28 kcal/mol | > 100 µM |  |  |  |  |  | IC50 (SARS-CoV-2 nsp16/nsp10; [11]): 2.46 µM

Source: publication PMC8705538, “Discovery of SARS-CoV-2 Nsp14 and Nsp16 Methyltransferase Inhibitors by High-Throughput Virtual Screening” (Pharmaceuticals, 2021)
